The source of these data is ChEMBL document CHEMBL1154056, “Synthesis, characterization, antimicrobial and antitumor screening of some diorganotin(IV) complexes of 2-[(9H-Purin-6-ylimino)]-phenol” (Eur J Med Chem, 2009).

The subject of one assay is Aspergillus niger. The assay is described as follows: Antifungal activity against Aspergillus niger assessed as growth inhibition at 50 mg after 72 hrs dilution plate method. It counts as functional.
A further assay deals with Pseudomonas aeruginosa. The assay is described as follows: Antibacterial activity against Pseudomonas aeruginosa. It counts as functional.
Assay [1] concerns Aspergillus flavus. The assay is described as follows: Antifungal activity against Aspergillus flavus at 50 mg after 72 hrs by dilution plate method. The note with it: read-out: IZ. The assay is classed as functional.
For another assay, the system named is Fusarium oxysporum. As to the kind of experiment: Antifungal activity against Fusarium oxysporum assessed as growth inhibition at 50 mg after 72 hrs by dilution plate method. The assay is classed as functional.
The test system of assay [2] is Bacillus subtilis. As to the kind of experiment: Antibacterial activity against Bacillus subtilis at 2 mg by agar well diffusion assay relative to imipenem. It counts as functional.
Another assay deals with Staphylococcus aureus. As to the kind of experiment: Antibacterial activity against Staphylococcus aureus. It counts as functional.
Assay [3] has as its system Salmonella typhi. As to the kind of experiment: Antibacterial activity against Salmonella typhi. It counts as functional, Salmonella enterica subsp. enterica serovar Typhi. The settings on record: Salmonella enterica.
Assay [4] concerns Aspergillus flavus. As to the kind of experiment: Antifungal activity against Aspergillus flavus assessed as growth inhibition at 50 mg after 72 hrs by dilution plate method. The assay is classed as functional.
Assay [5] relates to Escherichia coli. The assay is described as follows: Antibacterial activity against Escherichia coli. It counts as functional.
The test system of assay [6] is Bacillus subtilis. As to the kind of experiment: Antibacterial activity against Bacillus subtilis. It counts as functional.
For assay [7], the system named is Escherichia coli. The assay is described as follows: Antibacterial activity against Escherichia coli at 2 mg by agar well diffusion assay relative to imipenem. It counts as functional.
Assay [8] deals with Salmonella typhi. As to the kind of experiment: Antibacterial activity against Salmonella typhi at 2 mg by agar well diffusion assay relative to imipenem. The assay is classed as functional, Salmonella enterica subsp. enterica serovar Typhi.

Molecules are shown by their SMILES. In brackets after ≈: the same amount, converted by molar mass.

On to `OC1=CC=CC/C1=N\c1ncnc2[nH]cnc12`, for which the “inhibition (INH)” value in the assay with Aspergillus niger was 8%; in the assay on Fusarium oxysporum, 12%; in the assay with Bacillus subtilis [2], 30%; with Aspergillus flavus [4], 10%; with Escherichia coli [7] it was 10%; in the assay on Salmonella typhi [8] it was 10%. Also, the MIC in the assay with Pseudomonas aeruginosa turned out to be 64 µg/mL (≈ 282 µM); with Staphylococcus aureus, 128 µg/mL (≈ 563 µM); in the assay on Salmonella typhi [3], 64 µg/mL (≈ 282 µM); in the assay on Escherichia coli [5], 64 µg/mL (≈ 282 µM); in the assay with Bacillus subtilis [6], 128 µg/mL (≈ 563 µM). Further, in the assay on Aspergillus flavus [1], the zone of inhibition at 50000 µg/disc amounted to 8 mm.
